We go through 14 compounds from patent US20220363689A1, “INHIBITOR OF BTK AND MUTANTS THEREOF” (Newave Pharmaceutical Inc., priority 2019, published 2022).

What all share (assay type): biochemical
Assay [1] deals with T1, WT BTK (Homo sapiens, UniProt Q06187). In words: Caliper-based kinase assay, WT BTK. As to conditions: 0.5 nM enzyme, ATP 16 μM, room temperature 3 h; read-out: WT BTK IC50 (nM) (irreversible inhibition). Here is the method: (§1) A Caliper-based kinase assay (Caliper Life Sciences, Hopkinton, Mass.) was used to measure inhibition of WT and […] Btk kinase activity of a compound of the present disclosure. […] The reaction was then terminated with EDTA, final concentration 20 mM and the phosphorylated reaction product was quantified on a Caliper Desktop Profiler (Caliper LabChip 3000).
T1 sequence (Q06187 whole entry): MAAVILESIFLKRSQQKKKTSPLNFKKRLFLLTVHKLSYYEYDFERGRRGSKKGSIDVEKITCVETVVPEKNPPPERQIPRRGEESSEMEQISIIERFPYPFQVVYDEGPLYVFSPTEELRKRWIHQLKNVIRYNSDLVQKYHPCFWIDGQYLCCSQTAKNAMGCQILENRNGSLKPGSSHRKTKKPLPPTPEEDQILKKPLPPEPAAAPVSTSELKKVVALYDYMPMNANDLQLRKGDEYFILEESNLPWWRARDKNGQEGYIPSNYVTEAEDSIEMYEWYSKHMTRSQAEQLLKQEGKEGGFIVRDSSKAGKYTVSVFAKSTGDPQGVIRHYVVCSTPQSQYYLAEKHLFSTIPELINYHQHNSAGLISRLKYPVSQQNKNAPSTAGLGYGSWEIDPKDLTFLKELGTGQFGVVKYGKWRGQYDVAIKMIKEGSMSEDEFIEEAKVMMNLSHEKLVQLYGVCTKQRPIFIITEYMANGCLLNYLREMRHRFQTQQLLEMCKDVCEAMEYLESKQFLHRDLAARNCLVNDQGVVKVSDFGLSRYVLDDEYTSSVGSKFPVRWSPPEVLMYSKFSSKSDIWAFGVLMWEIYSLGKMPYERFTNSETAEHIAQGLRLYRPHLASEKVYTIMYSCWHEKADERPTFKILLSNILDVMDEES

The target of another assay is C481S Btk (Homo sapiens, UniProt Q06187, C481S). In words: Caliper-based kinase assay, C481S BTK. The following applies: 0.5 nM enzyme, ATP 16 μM, room temperature 3 h; read-out: C481S BTK IC50 (nM) (reversible inhibition). The method, then:
as §1

The target of assay [2] is T1, WT BTK. In words: In vitro dialysis assay (irreversibility assay), WT BTK. The following applies: reversible or irreversible/covalent inhibition after 24 h dialysis. The method, then:
The compound-enzyme complex was dialyzed against the same buffer supplemented with 40 mM ATP for 24 hr. Cumulative dialysis factor>160,000×. After dialysis, the BTK activity was measured in the presence […] and 1 mM substrate peptide and compared to that in non-dialyzed samples. Assay buffer: 100 mM HEPES, pH7.5; […]; 5 mM MgCl2; 1 mM DTT. In this study, Ibrutiib (a FDA approved irreversible BTK inhibitor) was used as a positive control and Saurosporine (a reversible BTK inhibitor) was used as a negative control.

Each structure is given as a SMILES string.

C481S Btk, sequence (Q06187 whole entry C481S): as the sequence (Q06187 whole entry) above, with C481S counted along it

Turning to `C=CC(=O)Nc1cc(Nc2nc(-c3ccnc(N4CCn5c(cc6c5CC(C)(C)C6)C4=O)c3CO)cn(C)c2=O)cc(F)c1N1CCN(C2COC2)C[C@@H]1C` [Example 30, N-(5-[[6-(2-[4,4-dimethyl-9-oxo-1,10-diazatricyclo[6.4.0.0^[2,6]]dodeca-2(6),7-dien-10-yl]-3-(hydroxymethyl)pyridin-4-yl)-4-methyl-3-oxopyrazin-2-yl]amino]-3-fluoro-2-[(2S)-2-methyl-4-(oxetan-3-yl)piperazin-1-yl]phenyl)prop-2-enamide], the IC50 at WT BTK [1] worked out at 1.58 nM; at C481S Btk, 1.6 nM.

With `C=CC(=O)Nc1cc(Nc2nc(-c3ccnc(N4CCn5c(cc6c5CC(C)(C)C6)C4=O)c3CO)cn(C)c2=O)ccc1C1CN(C2COC2)CC(=O)N1C` (centres unmarked) [Example 42, N-(5-[[6-(2-[4,4-dimethyl-9-oxo-1,10-diazatricyclo[6.4.0.0^[2,6]]dodeca-2(6),7-dien-10-yl]-3-(hydroxymethyl)pyri-din-4-yl)-4-methyl-3-oxopyrazin-2-yl]amino]-2-[1-methyl-4-(oxetan-3-yl)-6-oxopiperazin-2-yl]phenyl)prop-2-enamide], the “Conclusion (WT BTK)” value on WT BTK [2] is given as “Irreversible/covalent inhibition”. For the same compound, the half-inhibitory concentration (IC50) at WT BTK [1] is 0.24 nM; at C481S Btk, 0.3 nM.

Take `C=CC(=O)Nc1cc(Nc2nc(-c3ccnc(N4CCc5c(sc6c5CCCC6)C4=O)c3C)cn(C)c2=O)ccc1N1CCN(C2COC2)C[C@@H]1C` [Example 44, (S)—N-(2-(2-methyl-4-(oxetan-3-yl)piperazin-1-yl)-5-((4-methyl-6-(3-methyl-2-(1-oxo-3,4,5,6,7,8-hexahydrobenzo [4, 5]thieno [2,3-c]pyridin-2(1H)-yl)pyridin-4-yl)-3-oxo-3,4-dihydropyrazin-2-yl)amino)phenyl) acrylamide]: the “Conclusion (WT BTK)” value at WT BTK [2] was “Irreversible/covalent inhibition”. In addition, on WT BTK [1], the IC50 was 0.98 nM.

`C=CC(=O)Nc1cc(Nc2nc(-c3ccnc(N4CCn5c(cc6c5CC(C)(C)C6)C4=O)c3CO)cn(C)c2=O)ccc1N1CCN(C2CCOCC2)C[C@@H]1C(F)(F)F` [Example 48-R, N-(5-[[6-(2-[4,4-dimethyl-9-oxo-1,10-diazatricyclo[6.4.0.0^[2,6]]dodeca-2(6),7-dien-10-yl]-3-(hydroxymethyl)pyridin-4-yl)-4-methyl-3-oxopyrazin-2-yl]amino]-2-[(2R)-4-(oxan-4-yl)-2-(trifluoromethyl)piperazin-1-yl]phenyl)prop-2-enamide]: at WT BTK [2], the “Conclusion (WT BTK)” value is listed as “Irreversible/covalent inhibition”. Moreover, the IC50 at WT BTK [1] was 0.065 nM.

In the case of `C=CC(=O)Nc1cc(Nc2nc(-c3ccnc(N4CCc5c(sc6c5CCCC6)C4=O)c3C)cn(C)c2=O)ccc1N1CCN(C2CCOCC2)C[C@@H]1C(F)(F)F` [Example 54-R, N-(5-[[4-methyl-6-(3-methyl-2-[6-oxo-8-thia-5-azatricyclo[7.4.0.0^[2,7]]trideca-1(9), 2(7)-dien-5-yl]pyridin-4-yl)-3-oxopyrazin-2-yl]amino]-2-[(2R)-4-(oxan-4-yl)-2-(trifluoromethyl)piperazin-1-yl]phenyl)prop-2-enamide], the “Conclusion (WT BTK)” value on WT BTK [2] was “Irreversible/covalent inhibition”. Also, the IC50 at WT BTK [1] is 2.9 nM.

Turning to `C=CC(=O)Nc1cc(Nc2nc(-c3ccnc(N4CCn5c(cc6c5CC(C)(C)C6)C4=O)c3C)cn(C)c2=O)ccc1N1CCN(C2CCOCC2)C[C@@H]1C(F)(F)F` [Example 53-R, N-(5-[[6-(2-[4,4-dimethyl-9-oxo-1,10-diazatricyclo[6.4.0.0^[2,6]]dodeca-2(6),7-dien-10-yl]-3-methylpyridin-4-yl)-4-methyl-3-oxopyrazin-2-yl]amino]-2-[(2R)-4-(oxan-4-yl)-2-(trifluoromethyl)piperazin-1-yl]phenyl)prop-2-enamide], the “Conclusion (WT BTK)” value on WT BTK [2] is “Irreversible/covalent inhibition”. Besides, on WT BTK [1], the IC50 amounted to 0.4 nM.

As for `C=CC(=O)Nc1cc(Nc2nc(-c3ccnc(N4CCc5c(sc6c5CCCC6)C4=O)c3C)cn(C)c2=O)ccc1N1CCN(C2CCOCC2)C[C@H]1C(F)(F)F` [Example 54-S, N-(5-[[4-methyl-6-(3-methyl-2-[6-oxo-8-thia-5-azatricyclo[7.4.0.0^[2,7]]trideca-1(9), 2(7)-dien-5-yl]pyridin-4-yl)-3-oxopyrazin-2-yl]amino]-2-[(2S)-4-(oxan-4-yl)-2-(trifluoromethyl)piperazin-1-yl]phenyl)prop-2-enamide], the “Conclusion (WT BTK)” value at WT BTK [2] is “Irreversible/covalent inhibition”. Also, the IC50 on WT BTK [1] worked out at 4.4 nM.

`C=CC(=O)Nc1cc(Nc2nc(-c3ccnc(N4CCn5c(cc6c5CC(C)(C)C6)C4=O)c3CO)cn(C)c2=O)ccc1N1CCN(C2CCOCC2)CC1C` (centres unmarked) [Example 47, N-(5-((6-(2-(7,7-dimethyl-1-oxo-1,3,4,6,7,8-hexahydro-2H-cyclopenta[4,5]pyrrolo[1,2-a]pyrazin-2-yl)-3-(hydroxymethyl)pyridin-4-yl)-4-methyl-3-oxo-3,4-dihydropyrazin-2-yl)amino)-2-(2-methyl-4-(tetrahydro-2H-pyran-4-yl)piperazin-1-yl)phenyl)acrylamide]: the “Conclusion (WT BTK)” value at WT BTK [2] is reported as “Irreversible/covalent inhibition”. Moreover, the IC50 on WT BTK [1] was found to be 0.12 nM.

`C=CC(=O)Nc1cc(Nc2nc(-c3ccnc(N4CCn5c(cc6c5CC(C)(C)C6)C4=O)c3C)cn(C)c2=O)ccc1N1CCN(C2COC2)CC1(C)C` [Example 45, N-[2-[2,2-dimethyl-4-(oxetan-3-yl)piperazin-1-yl]-5-[[6-(2-[4,4-dimethyl-9-oxo-1,10-diazatricyclo[6.4.0.0^[2,6]]dodeca-2(6),7-dien-10-yl]-3-methylpyridin-4-yl)-4-methyl-3-oxopyrazin-2-yl]amino]phenyl]prop-2-enamide]: the “Conclusion (WT BTK)” value at WT BTK [2] was “Irreversible/covalent inhibition”. Moreover, the IC50 on WT BTK [1] was found to be 0.36 nM.

Consider `C=CC(=O)Nc1cc(Nc2nc(-c3ccnc(N4CCc5c(sc6c5CC(C)(C)C6)C4=O)c3CO)cn(C)c2=O)ccc1N1CCN(C2COC2)C[C@@H]1C` [Example 34, N-(5-[[6-(2-[4,4-dimethyl-9-oxo-7-thia-10-azatricyclo[6.4.0.0^[2,6]]dodeca-1(8),2(6)-dien-10-yl]-3-(hydroxymethyl)pyridin-4-yl)-4-methyl-3-oxopyrazin-2-yl]amino]-2-[(2S)-2-methyl-4-(oxetan-3-yl)piperazin-1-yl]phenyl)prop-2-enamide], for which the “Conclusion (WT BTK)” value on WT BTK [2] is recorded as “Irreversible/covalent inhibition”. In addition, the IC50 on C481S Btk came to 0.46 nM.

Turning to `C=CC(=O)Nc1cc(Nc2nc(-c3ccnc(N4CCn5c(cc6c5CC(C)(C)C6)C4=O)c3C)cn(C)c2=O)ccc1N1CCN(C2CCOCC2)C[C@H]1C(F)(F)F` [Example 53-S, N-(5-[[6-(2-[4,4-dimethyl-9-oxo-1,10-diazatricyclo[6.4.0.0^[2,6]]dodeca-2(6),7-dien-10-yl]-3-methylpyridin-4-yl)-4-methyl-3-oxopyrazin-2-yl]amino]-2-[(2S)-4-(oxan-4-yl)-2-(trifluoromethyl)piperazin-1-yl]phenyl)prop-2-enamide], on WT BTK [2], the “Conclusion (WT BTK)” value is recorded as “Irreversible/covalent inhibition”. Besides, the half-inhibitory concentration (IC50) at WT BTK [1] is 1 nM.

Consider `C=CC(=O)Nc1cc(Nc2nc(-c3ccnc(N4CCn5c(cc6c5CC(C)(C)C6)C4=O)c3C)cn(C)c2=O)cnc1N1CCN(C2COC2)C[C@@H]1C` [Example 46, N-(5-[[6-(2-[4,4-dimethyl-9-oxo-1,10-diazatricyclo[6.4.0.0^[2,6]]dodeca-2(6),7-dien-10-yl]-3-methylpyridin-4-yl)-4-methyl-3-oxopyrazin-2-yl]amino]-2-[(2S)-2-methyl-4-(oxetan-3-yl)piperazin-1-yl]pyridin-3-yl)prop-2-enamide], for which the “Conclusion (WT BTK)” value at WT BTK [2] is “Irreversible/covalent inhibition”. Further, the IC50 on WT BTK [1] was found to be 0.16 nM.

Consider `C=CC(=O)Nc1cc(Nc2nc(-c3ccnc(N4CCn5c(cc6c5CC(C)(C)C6)C4=O)c3C)cn(C)c2=O)ccc1N1CCN(C2CCOCC2)C[C@@H]1C` [Example 40, N-(5-[[6-(2-[4,4-dimethyl-9-oxo-1,10-diazatricyclo[6.4.0.0^[2,6]]dodeca-2(6),7-dien-10-yl]-3-methylpyridin-4-yl)-4-methyl-3-oxopyrazin-2-yl]amino]-2-[(2S)-2-methyl-4-(oxan-4-yl)piperazin-1-yl]phenyl)prop-2-enamide], for which the “Conclusion (WT BTK)” value at WT BTK [2] is listed as “Irreversible/covalent inhibition”. The IC50 on WT BTK [1] is 0.083 nM.

Consider `C=CC(=O)Nc1cc(Nc2nc(-c3ccnc(N4CCc5c(sc6c5CCCC6)C4=O)c3CO)cn(C)c2=O)ccc1N1CCN(C2CCOCC2)C[C@@H]1C(F)(F)F` [Example 55-R, N-[5-([6-[3-(hydroxymethyl)-2-[6-oxo-8-thia-5-azatricyclo[7.4.0.0^[2,7]]trideca-1(9), 2(7)-dien-5-yl]pyridin-4-yl]-4-methyl-3-oxopyrazin-2-yl]amino)-2-[(2R)-4-(oxan-4-yl)-2-(trifluoromethyl)piperazin-1-yl]phenyl]prop-2-enamide], for which the “Conclusion (WT BTK)” value on WT BTK [2] was “Irreversible/covalent inhibition”. Besides, at WT BTK [1], the IC50 was found to be 0.24 nM.

For orientation: IC50 means the point on the concentration scale where inhibition reaches its midpoint.
